Results: patent publication US7399775B2, “β-amyloid protein production/secretion inhibitor” (Daiichi Pharmaceutical Co., Ltd., priority 2001, dated 2008)

melting point [°C]	Structure (SMILES)
127 to 130	O=S(=O)(c1ccc(Cl)cc1)C(Cc1cccs1)c1cc(F)ccc1F (stereo not drawn) [Example 295, 2-[2-[(4-Chlorophenyl)sulfonyl]-2-(2,5-difluorophenyl)ethyl]thiophene]
90 to 93	O=S(=O)(c1ccc(Cl)cc1)C(Cc1ccco1)c1cc(F)ccc1F (stereo not drawn) [Example 296, 2-[2-[(4-Chlorophenyl)sulfonyl]-2-(2,5-difluorophenyl)ethyl]furan]
108 to 113	O=S(=O)(c1ccc(Cl)cc1)C(CCn1cccc1)c1cc(F)ccc1F (stereo not drawn) [Example 297, 1-[3-[(4-Chlorophenyl)sulfonyl]-3-(2,5-difluorophenyl)propyl]-1H-pyrrole]
149 to 151	O=S(=O)(c1ccc(Cl)cc1)C(CCN1CCOCC1)c1cc(F)ccc1F (stereo not drawn) [Example 298, 4-[3-[(4-Chlorophenyl)sulfonyl]-3-(2,5-difluorophenyl)propyl]morpholine]
111 to 113	O=S(=O)(c1ccc(Cl)cc1)C(CCc1ccccc1)c1cc(F)ccc1F (stereo not drawn) [Example 304, 2-[1-(4-Chlorophenylsulfonyl)-3-phenylpropyl]-1,4-difluorobenzene]
105 to 106	Cc1ccccc1CCC(c1cc(F)ccc1F)S(=O)(=O)c1ccc(Cl)cc1 (stereo not drawn) [Example 305, 2-[1-(4-Chlorophenylsulfonyl)-3-(2-methylphenyl)propyl]-1,4-difluorobenzene]
87 to 88	Cc1cccc(CCC(c2cc(F)ccc2F)S(=O)(=O)c2ccc(Cl)cc2)c1 (stereo not drawn) [Example 306, 2-[1-(4-Chlorophenylsulfonyl)-3-(3-methylphenyl)propyl]-1,4-difluorobenzene]
82 to 84	Cc1ccc(CCC(c2cc(F)ccc2F)S(=O)(=O)c2ccc(Cl)cc2)cc1 (stereo not drawn) [Example 307, 2-[1-(4-Chlorophenylsulfonyl)-3-(4-methylphenyl)propyl]-1,4-difluorobenzene]
118 to 120	COc1ccc(CCC(c2cc(F)ccc2F)S(=O)(=O)c2ccc(Cl)cc2)cc1 (stereo not drawn) [Example 308, 2-[1-(4-Chlorophenylsulfonyl)-3-(4-methoxyphenyl)propyl]-1,4-difluorobenzene]
131 to 132	O=S(=O)(c1ccc(Cl)cc1)C(CCc1ccc(F)cc1)c1cc(F)ccc1F (stereo not drawn) [Example 309, 2-[1-(4-Chlorophenylsulfonyl)-3-(4-fluorophenyl)propyl]-1,4-difluorobenzene]
124 to 126	O=S(=O)(c1ccc(Cl)cc1)C(CCc1ccc(Cl)cc1)c1cc(F)ccc1F (stereo not drawn) [Example 310, 2-[3-(4-Chlorophenyl)-1-(4-chlorophenylsulfonyl)propyl]-1,4-difluorobenzene]
122 to 124	O=S(=O)(c1ccc(Cl)cc1)C(CCc1ccc(Br)cc1)c1cc(F)ccc1F (stereo not drawn) [Example 311, 2-[3-(4-Bromophenyl)-1-(4-chlorophenylsulfonyl)propyl]-1,4-difluorobenzene]
107 to 108	O=S(=O)(c1ccc(Cl)cc1)C(CCCc1ccccc1)c1cc(F)ccc1F (stereo not drawn) [Example 312, 2-[1-(4-Chlorophenylsulfonyl)-4-phenylbutyl]-1,4-difluorobenzene]
88 to 90	O=S(=O)(c1ccc(Cl)cc1)C(CCCCc1ccccc1)c1cc(F)ccc1F (stereo not drawn) [Example 313, 2-[1-(4-Chlorophenylsulfonyl)-5-phenylpentyl]-1,4-difluorobenzene]
151 to 153	O=S(=O)(c1ccc(Cl)cc1)C(Cc1ccc(F)cc1)c1cc(F)ccc1F (stereo not drawn) [Example 314, 2-[1-(4-Chlorophenylsulfonyl)-2-(4-fluorophenyl)ethyl]-1,4-difluorobenzene]
93 to 94	O=S(=O)(c1ccc(Cl)cc1)C(CCC1CCCC1)c1cc(F)ccc1F (stereo not drawn) [Example 315, 2-[1-(4-Chlorophenylsulfonyl)-3-cyclopentylpropyl]-1,4-difluorobenzene]
82 to 83	O=S(=O)(c1ccc(Cl)cc1)C(CCC1CCCCC1)c1cc(F)ccc1F (stereo not drawn) [Example 316, 2-[1-(4-Chlorophenylsulfonyl)-3-cyclohexylpropyl]-1,4-difluorobenzene]
47 to 49	O=S(=O)(c1ccc(Cl)cc1)C(CCCC1CCCCC1)c1cc(F)ccc1F (stereo not drawn) [Example 317, 2-[1-(4-Chlorophenylsulfonyl)-4-cyclohexylbutyl]-1,4-difluorobenzene]
129 to 131	O=S(=O)(c1ccc(Cl)cc1)C(CCc1ccccn1)c1cc(F)ccc1F (stereo not drawn) [Example 318, 2-[3-(4-chlorophenylsulfonyl)-3-(2,5-difluorophenyl)propyl]pyridine]
183 to 184	Cc1ncsc1CCC(c1cc(F)ccc1F)S(=O)(=O)c1ccc(Cl)cc1 (stereo not drawn) [Example 319, 5-[3-(4-Chlorophenylsulfonyl)-3-(2,5-difluorophenyl)propyl]-4-methyl-1,3-thiazole]
106 to 107	O=S(=O)(c1ccc(Cl)cc1)C(CCN1CCCCC1)c1cc(F)ccc1F (stereo not drawn) [Example 320, 1-[3-(4-Chlorophenylsulfonyl)-3-(2,5-difluorophenyl)propyl]piperidine]
69 to 71	CC1(C)COC(CCC(c2cc(F)ccc2F)S(=O)(=O)c2ccc(Cl)cc2)OC1 (stereo not drawn) [Example 321, 2-[3-(4-Chlorophenylsulfonyl)-3-(2,5-difluorophenyl)propyl]-5,5-dimethyl-1,3-dioxane]
68 to 69	CCCCCC(c1cc(F)ccc1F)S(=O)(=O)c1ccc(Cl)cc1 (stereo not drawn) [Example 322, 2-[1-(4-Chlorophenylsulfonyl)hexyl]-1,4-difluorobenzene]
77 to 78	CCCCCCC(c1cc(F)ccc1F)S(=O)(=O)c1ccc(Cl)cc1 (stereo not drawn) [Example 323, 2-[1-(4-Chlorophenylsulfonyl)heptyl]-1,4-difluorobenzene]
47 to 48	CCCCCCCC(c1cc(F)ccc1F)S(=O)(=O)c1ccc(Cl)cc1 (stereo not drawn) [Example 324, 2-[1-(4-chlorophenylsulfonyl)octyl]-1,4-difluorobenzene]
79 to 80	CC(C)CCCC(c1cc(F)ccc1F)S(=O)(=O)c1ccc(Cl)cc1 (stereo not drawn) [Example 325, 2-[1-(4-Chlorophenylsulfonyl)-5-methylhexyl]-1,4-difluorobenzene]
56 to 58	CCC(C)CCC(c1cc(F)ccc1F)S(=O)(=O)c1ccc(Cl)cc1 (stereo not drawn) [Example 326, 2-[1-(4-Chlorophenylsulfonyl)-4-methylhexyl]-1,4-difluorobenzene]
186 to 187	O=S(=O)(Cc1ccc(C(c2cc(F)ccc2F)S(=O)(=O)c2ccc(Cl)cc2)nc1)c1ccc(Cl)cc1 (stereo not drawn) [Example 328, 2-[(4-Chlorophenylsulfonyl)-(2,5-difluorophenyl)methyl]-5-[(4-chlorophenylsulfonyl)methyl]pyridine]
70 to 73	Fc1ccc(F)c(C(Sc2ccc(Cl)cc2)c2ccc(C3OCCO3)cn2)c1 (stereo not drawn) [Example 329, 2-[(4-Chlorophenylthio)-(2,5-difluorophenyl)methyl]-5-(1,3-dioxolan-2-yl)pyridine]
145 to 146	COC(=O)/C=C/c1ccc(C(c2cc(F)ccc2F)S(=O)(=O)c2ccc(Cl)cc2)nc1 (stereo not drawn) [Example 332, Methyl 3-[6-[(4-chlorophenylsulfonyl)-(2,5-difluorophenyl)methyl]pyridin-3-yl]acrylate]
